pIC50: −log10 of the molar value.
target: T1, catalytic domain of human Bub1 (amino acids 704-1085) (Homo sapiens, UniProt O43683); assay: Bub1 kinase assay (TR-FRET); assay type: biochemical; conditions: TR-FRET; ATP 10 μM, peptide substrate 1 μM; 60 min at 22° C.; average or median if tested more than once; read-out: Inhibition of Bub1 kinase IC50
T1 construct: catalytic domain of human Bub1 (amino acids 704-1085); His6 (N); made in house; host or cells: Hi5 insect cells
Method in brief: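 Eleven concentrations (0.1 nM–20 μM, duplicate) fitted by 4-parameter logistic for IC50. Read-out: EDTA-stopped TR-FRET (665/620 nm) detecting anti-phosphoserine binding to biotin-peptide (1 μM). Reaction used 10 μM ATP, 60 min at 22 °C, after 15 min compound preincubation with His-tagged human Bub1 704-1085.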

T1 sequence (O43683 704-1085): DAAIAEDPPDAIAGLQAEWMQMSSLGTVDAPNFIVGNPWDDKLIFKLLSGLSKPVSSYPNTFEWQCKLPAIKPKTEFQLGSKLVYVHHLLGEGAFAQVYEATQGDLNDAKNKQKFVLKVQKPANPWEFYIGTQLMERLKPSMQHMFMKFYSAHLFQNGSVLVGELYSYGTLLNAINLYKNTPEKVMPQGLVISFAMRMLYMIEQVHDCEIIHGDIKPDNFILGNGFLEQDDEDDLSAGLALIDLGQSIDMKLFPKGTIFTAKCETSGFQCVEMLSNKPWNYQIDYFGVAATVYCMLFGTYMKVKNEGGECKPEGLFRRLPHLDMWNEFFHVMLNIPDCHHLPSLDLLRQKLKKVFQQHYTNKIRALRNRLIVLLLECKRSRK

Compared with `CC(C)(C)OC(=O)N1CC(=O)c2c([nH]c(-c3ccncc3OCC(F)(F)F)c2Nc2ccccc2)C1` [Example 221, tert-Butyl 3-anilino-4-oxo-2-[3-(2,2,2-trifluoroethoxy)pyridin-4-yl]-1,4,5,7-tetrahydro-6H-pyrrolo[2,3-c]pyridine-6-carboxylate], `COC(=O)N1CC(=O)c2c([nH]c(-c3ccncc3OCC(F)(F)F)c2Nc2ccccc2)C1` [Example 242, Methyl 4-oxo-3-(phenylamino)-2-[3-(2,2,2-trifluoroethoxy)pyridin-4-yl]-1,4,5,7-tetrahydro-6H-pyrrolo[2,3-c]pyridine-6-carboxylate] is 0.26 log units higher in pIC50: 6.98 for the first, 7.24 for the second. The second is the more potent here.

Compared with `COCCOc1cnccc1-c1[nH]c2c(c1Nc1ccccc1)C(=O)CN(C(=O)OC(C)(C)C)C2` [Example 222, tert-Butyl 3-anilino-2-[3-(2-methoxyethoxy)pyridin-4-yl]-4-oxo-1,4,5,7-tetrahydro-6H-pyrrolo[2,3-c]pyridine-6-carboxylate], `COCCOc1cnccc1-c1[nH]c2c(c1Nc1ccccc1)C(=O)CN(C(=O)OC)C2` [Example 248, Methyl 2-[3-(2-methoxyethoxy)pyridin-4-yl]-4-oxo-3-(phenylamino)-1,4,5,7-tetrahydro-6H-pyrrolo[2,3-c]pyridine-6-carboxylate] is 0.25 log units higher in pIC50: 8.05 for the first, 8.30 for the second.

Going from `CC(C)(C)OC(=O)N1CC(=O)c2c([nH]c(-c3ccncc3OCC3CC3)c2Nc2ccccc2)C1` [Example 223, tert-Butyl 3-anilino-2-[3-(cyclopropylmethoxy)pyridin-4-yl]-4-oxo-1,4,5,7-tetrahydro-6H-pyrrolo[2,3-c]pyridine-6-carboxylate] to `COC(=O)N1CC(=O)c2c([nH]c(-c3ccncc3OCC3CC3)c2Nc2ccccc2)C1` [Example 250, Methyl 2-[3-(cyclopropylmethoxy)pyridin-4-yl]-4-oxo-3-(phenylamino)-1,4,5,7-tetrahydro-6H-pyrrolo[2,3-c]pyridine-6-carboxylate], the pIC50 rises from 7.85 to 8.05 (0.20 log units).

Going from `O=C1CNCc2[nH]c(-c3ccncc3OCC(F)F)c(Nc3ccccc3)c21` [Example 224, 3-anilino-2-[3-(2,2-difluoroethoxy)pyridin-4-yl]-1,5,6,7-tetrahydro-4H-pyrrolo[2,3-c]pyridin-4-one] to `O=C1CNCc2[nH]c(-c3ccncc3OCC(F)(F)F)c(Nc3ccccc3)c21` [Example 225, 3-Anilino-2-[3-(2,2,2-trifluoroethoxy)pyridin-4-yl]-1,5,6,7-tetrahydro-4H-pyrrolo[2,3-c]pyridin-4-one], the pIC50 falls from 6.65 to 5.99 (0.66 log units). The first is the more potent here.

Compared with `COCCOc1cnccc1-c1[nH]c2c(c1Nc1ccccc1)C(=O)CNC2` [Example 226, 3-anilino-2-[3-(2-methoxyethoxy)pyridin-4-yl]-1,5,6,7-tetrahydro-4H-pyrrolo[2,3-c]pyridin-4-one], `O=C1CNCc2[nH]c(-c3ccncc3OCC3CC3)c(Nc3ccccc3)c21` [Example 227, 3-anilino-2-[3-(cyclopropylmethoxy)pyridin-4-yl]-1,5,6,7-tetrahydro-4H-pyrrolo[2,3-c]pyridin-4-one] is 0.29 log units lower in pIC50: 7.14 for the first, 6.85 for the second.

First: CC(=O)N1CC(=O)c2c([nH]c(-c3ccncc3OCC(F)F)c2Nc2ccccc2)C1 [Example 228, 6-Acetyl-3-anilino-2-[3-(2,2-difluoroethoxy)pyridin-4-yl]-1,5,6,7-tetrahydro-4H-pyrrolo[2,3-c]pyridin-4-one]
Second: COC(=O)N1CC(=O)c2c([nH]c(-c3ccncc3OCC(F)F)c2Nc2ccccc2)C1 [Example 236, Methyl 2-[3-(2,2-difluoroethoxy)pyridin-4-yl]-4-oxo-3-(phenylamino)-1,4,5,7-tetrahydro-6H-pyrrolo[2,3-c]pyridine-6-carboxylate]
The pIC50 of the first is 0.32 log units lower: 7.48 for the first, 7.80 for the second.

First: CC(=O)N1CC(=O)c2c([nH]c(-c3ccncc3OCC(F)(F)F)c2Nc2ccccc2)C1 [Example 229, 6-Acetyl-3-(phenylamino)-2-[3-(2,2,2-trifluoroethoxy)pyridin-4-yl]-1,5,6,7-tetrahydro-4H-pyrrolo[2,3-c]pyridin-4-one]
Second: CNC(=O)N1CC(=O)c2c([nH]c(-c3ccncc3OCC(F)(F)F)c2Nc2ccccc2)C1 [Example 243, N-Methyl-44-oxo-3-(phenylamino)-2-[3-(2,2,2-trifluoroethoxy)pyridin-4-yl]-1,4,5,7-tetrahydro-6H-pyrrolo[2,3-c]pyridine-6-carboxamide]
The pIC50 of the first is 0.47 log units lower: 6.79 for the first, 7.26 for the second.

First: COCCOc1cnccc1-c1[nH]c2c(c1Nc1ccccc1)C(=O)CN(C(C)=O)C2 [Example 230, 6-Acetyl-2-[3-(2-methoxyethoxy)pyridin-4-yl]-3-(phenylamino)-1,5,6,7-tetrahydro-4H-pyrrolo[2,3-c]pyridin-4-one]
Second: CNC(=O)N1CC(=O)c2c([nH]c(-c3ccncc3OCCOC)c2Nc2ccccc2)C1 [Example 249]
The pIC50 of the first is 0.50 log units lower: 7.80 for the first, 8.30 for the second.

First: CC(=O)N1CC(=O)c2c([nH]c(-c3ccncc3OCC3CC3)c2Nc2ccccc2)C1 [Example 231, 6-Acetyl-2-[3-(cyclopropylmethoxy)pyridin-4-yl]-3-(phenylamino)-1,5,6,7-tetrahydro-4H-pyrrolo[2,3-c]pyridin-4-one]
Second: CNC(=O)N1CC(=O)c2c([nH]c(-c3ccncc3OCC3CC3)c2Nc2ccccc2)C1 [Example 251, 2-[3-(Cyclopropylmethoxy)pyridin-4-yl]-N-methyl-4-oxo-3-(phenylamino)-1,4,5,7-tetrahydro-6H-pyrrolo[2,3-c]pyridine-6-carboxamide]
The pIC50 of the first is 0.52 log units lower: 7.40 for the first, 7.92 for the second. The second is the more potent here.

`CS(=O)(=O)N1CC(=O)c2c([nH]c(-c3ccncc3OCC(F)F)c2Nc2ccccc2)C1` [Example 232, 3-Anilino-2-[3-(2,2-difluoroethoxy)pyridin-4-yl]-6-(methylsulfonyl)-1,5,6,7-tetrahydro-4H-pyrrolo[2,3-c]pyridin-4-one] and `CC(C)S(=O)(=O)N1CC(=O)c2c([nH]c(-c3ccncc3OCC(F)F)c2Nc2ccccc2)C1` [Example 241, 2-[3-(2,2-Difluoroethoxy)pyridin-4-yl]-3-(phenylamino)-6-(propan-2-ylsulfonyl)-1,5,6,7-tetrahydro-4H-pyrrolo[2,3-c]pyridin-4-one] are within 0.2 log units of each other in pIC50: 7.92 for the first, 7.89 for the second.

First: CS(=O)(=O)N1CC(=O)c2c([nH]c(-c3ccncc3OCC(F)(F)F)c2Nc2ccccc2)C1 [Example 233, 6-(Methylsulfonyl)-3-(phenylamino)-2-[3-(2,2,2-trifluoroethoxy)pyridin-4-yl]-1,5,6,7-tetrahydro-4H-pyrrolo[2,3-c]pyridin-4-one]
Second: CC(C)S(=O)(=O)N1CC(=O)c2c([nH]c(-c3ccncc3OCC(F)(F)F)c2Nc2ccccc2)C1 [Example 247, 3-(Phenylamino)-6-(propan-2-ylsulfonyl)-2-[3-(2,2,2-trifluoroethoxy)pyridin-4-yl]-1,5,6,7-tetrahydro-4H-pyrrolo[2,3-c]pyridin-4-one]
The pIC50 of the first is 0.25 log units higher: 7.44 for the first, 7.19 for the second. The first is the more potent here.

`COCCOc1cnccc1-c1[nH]c2c(c1Nc1ccccc1)C(=O)CN(S(C)(=O)=O)C2` [Example 234] and `CS(=O)(=O)N1CC(=O)c2c([nH]c(-c3ccncc3OCC3CC3)c2Nc2ccccc2)C1` [Example 235, 2-[3-(Cyclopropylmethoxy)pyridin-4-yl]-6-(methylsulfonyl)-3-(phenylamino)-1,5,6,7-tetrahydro-4H-pyrrolo[2,3-c]pyridin-4-one] are within 0.2 log units of each other in pIC50: 8.30 for the first, 8.22 for the second.

First: CNC(=O)N1CC(=O)c2c([nH]c(-c3ccncc3OCC(F)F)c2Nc2ccccc2)C1 [Example 237, 2-[3-(2,2-Difluoroethoxy)pyridin-4-yl]-N-methyl-4-oxo-3-(phenylamino)-1,4,5,7-tetrahydro-6H-pyrrolo[2,3-c]pyridine-6-carboxamide]
Second: CN(C)C(=O)N1CC(=O)c2c([nH]c(-c3ccncc3OCC(F)F)c2Nc2ccccc2)C1 [Example 238, 2-[3-(2,2-Difluoroethoxy)pyridin-4-yl]-N,N-dimethyl-4-oxo-3-(phenylamino)-1,4,5,7-tetrahydro-6H-pyrrolo[2,3-c]pyridine-6-carboxamide]
The pIC50 of the first is 0.36 log units lower: 7.74 for the first, 8.10 for the second.

Compared with `O=C1CN(C(=O)N2CCOCC2)Cc2[nH]c(-c3ccncc3OCC(F)F)c(Nc3ccccc3)c21` [Example 239, 2-[3-(2,2-Difluoroethoxy)pyridin-4-yl]-6-(morpholin-4-ylcarbonyl)-3-(phenylamino)-1,5,6,7-tetrahydro-4H-pyrrolo[2,3-c]pyridin-4-one], `O=C1CN(C(=O)N2CCOCC2)Cc2[nH]c(-c3ccncc3OCC(F)(F)F)c(Nc3ccccc3)c21` [Example 245, 6-(Morpholin-4-ylcarbonyl)-3-(phenylamino)-2-[3-(2,2,2-trifluoroethoxy)pyridin-4-y]1,5,6,7-tetrahydro-4H-pyrrolo[2,3-c]pyridin-4-one] is 0.56 log units lower in pIC50: 7.70 for the first, 7.14 for the second.

First: CN1CCN(C(=O)N2CC(=O)c3c([nH]c(-c4ccncc4OCC(F)F)c3Nc3ccccc3)C2)CC1 [Example 240, 2-[3-(2,2-Difluoroethoxy)pyridin-4-yl]-6-[(4-methylpiperazin-1-yl)carbonyl]-3-(phenylamino)-1,5,6,7-tetrahydro-4H-pyrrolo[2,3-c]pyridin-4-one]
Second: CN1CCN(C(=O)N2CC(=O)c3c([nH]c(-c4ccncc4OCC(F)(F)F)c3Nc3ccccc3)C2)CC1 [Example 246, 6-[(4-Methylpiperazin-1-yl)carbonyl]-3-(phenylamino)-2-[3-(2,2,2-trifluoroethoxy)pyridin-4-yl]-1,5,6,7-tetrahydro-4H-pyrrolo[2,3-c]pyridin-4-one]
The pIC50 of the first is 0.68 log units higher: 7.18 for the first, 6.50 for the second.

In the case of `CN(C)C(=O)N1CC(=O)c2c([nH]c(-c3ccncc3OCC(F)(F)F)c2Nc2ccccc2)C1` [Example 244, N,N-Dimethyl-4-oxo-3-(phenylamino)-2-[3-(2,2,2-trifluoroethoxy)pyridin-4-yl]-1,4,5,7-tetrahydro-6H-pyrrolo[2,3-c]pyridine-6-carboxamide], the pIC50 was 7.74.
